Data reported in patent publication US20220402862A1 (Intellia Therapeutics, Inc., priority 2019, published 2022).

Columns and labels:
[1] = pKa measurement of unformulated amine lipid (fluorescence, method of Jayaraman et al.); format: physicochemical; settings: 100 μM in 0.1 M phosphate buffer, pH 2.0-12.0
Protocol: The pKa of each amine lipid was determined according to the method in Jayaraman, et al. (Angewandte Chemie, 2012) with the following adaptations. […] Lipid was diluted to 100 μM in 0.1 M phosphate buffer (Boston Bioproducts) where the pH ranged from 2.0-12.0. Fluorescence intensity was measured using excitation and emission wavelengths of 321 nm and 448 nm.

[2] = Dynamic light scattering of LNPs: Z-average diameter, number average diameter, PDI; format: physicochemical; settings: LNP
Protocol: Dynamic Light Scattering (“DLS”) is used to characterize the polydispersity index (“PDI”) and size of the LNPs of the present disclosure. DLS measures the scattering of light that results from subjecting a sample to a light source. PDI, as determined from DLS measurements, represents the distribution of particle size (around the mean particle size) in a population, with a perfectly uniform population having a PDI of zero.
LNP compositions are analyzed for average particle size, polydispersity index (PDI), total RNA content, encapsulation efficiency of RNA, and zeta potential. LNP compositions may be further characterized by lipid analysis, AF4-MALS, NTA, and/or cryo-EM. Average particle size and polydispersity are measured by dynamic light scattering (DLS) using a Malvern Zetasizer DLS instrument or Wyatt NanoStar. LNP samples were diluted with PBS buffer prior to being measured by DLS. Z-average diameter which is an intensity-based measurement of average particle size is reported along with number average diameter and PDI. A Malvern Zetasizer or Wyatt NanoStar instrument is also used to measure the zeta potential of the LNP. Samples are diluted 1:17 (50 μL into 800 μL) in 0.1× PBS, pH 7.4 prior to measurement.

Transthyretin (TTR) = experiment: Serum TTR ELISA in mice after LNP dosing; format: in vivo, CD-1 female mice; settings: guide G282 experiments; for Serum TTR % TSS: mouse serum TTR relative to TSS control; for Serum TTR: mouse serum, ELISA
Protocol: CD-1 female mice ranging from 6-10 weeks of age were used in each study. Animals were weighed and grouped according to body weight for preparing dosing solutions based on group average weight. LNPs were dosed via the lateral tail vein in a volume of 0.2 mL per animal (approximately 10 mL per kilogram body weight). The animals were periodically observed for adverse effects for at least 24 hours post dose. For studies measuring in vivo editing in liver, CD-1 female mice were dosed at 0.1 mg/kg unless otherwise noted. Animals were euthanized at 6 or 7 days by ex sanguination via cardiac puncture under isoflurane anesthesia. Liver tissue was collected from each animal for DNA extraction and analysis. Blood was collected into serum separator tubes or into tubes containing buffered sodium citrate for plasma as described herein. Cohorts of mice were measured for editing by Next-Generation Sequencing (NGS).
Blood was collected and the serum was isolated as indicated. The total mouse TTR serum levels were determined using a Mouse Prealbumin (Transthyretin) ELISA Kit (Aviva Systems Biology, Cat. OKIA00111). Briefly, sera were serial diluted with kit sample diluent to a final dilution of 10,000-fold for 0.1 mg/kg dose and final dilutions of 10,000-fold and of 2,500-fold for 0.3 mg/kg. This diluted sample was then added to the ELISA plates and the assay was carried out according to the manufacturer's directions.

[3] = RNA encapsulation efficiency of LNPs (Ribogreen fluorescence assay); format: physicochemical; settings: LNP
Protocol: A fluorescence-based assay (Ribogreen®, ThermoFisher Scientific) is used to determine total RNA concentration and free RNA. Encapsulation efficiency is calculated as (Total RNA-Free RNA)/Total RNA. LNP samples are diluted appropriately with 1× TE buffer containing 0.2% Triton-X 100 to determine total RNA or 1× TE buffer to determine free RNA. Standard curves are prepared by utilizing the starting RNA solution used to make the compositions and diluted in 1× TE buffer +/− 0.2% Triton-X 100. Diluted RiboGreen® dye (according to the manufacturer's instructions) is then added to each of the standards and samples and allowed to incubate for approximately 10 minutes at room temperature, in the absence of light. A SpectraMax M5 Microplate Reader (Molecular Devices) is used to read the samples with excitation, auto cutoff and emission wavelengths set to 488 nm, 515 nm, and 525 nm respectively. Total RNA and free RNA are determined from the appropriate standard curves.
Encapsulation efficiency is calculated as (Total RNA-Free RNA)/Total RNA. The same procedure may be used for determining the encapsulation efficiency of a DNA-based cargo component. In a fluorescence-based assay, for single-strand DNA Oligreen Dye may be used, and for double-strand DNA, Picogreen Dye. Alternatively, the total RNA concentration can be determined by a reverse-phase ion-pairing (RP-IP) HPLC method. Triton X-100 is used to disrupt the LNPs, releasing the RNA. The RNA is then separated from the lipid components chromatographically by RP-IP HPLC and quantified against a standard curve using UV absorbance at 260 nm.

[4] = sg:mRNA 1:1.3, N/P about 6, 50/9/38/3, Table 2, Experiment 1
[5] = sg:mRNA 1:1.3, N/P about 6, amine lipid/DSPC/cholesterol/PEG-2k-DMG 50/9/38/3, Table 2, Experiment 1
[6] = sg:mRNA 1:1, N/P about 6, 50/9/38/3, Table 2, Experiments 2-20
[7] = sg:mRNA 1:1, N/P about 6, amine lipid/DSPC/cholesterol/PEG-2k-DMG 50/9/38/3, Table 2, Experiments 2-20

| SMILES | pKa [1] | Number mean (nm) [2, 4] | PDI [2, 4] | Z-avg (nm) [2, 4] | Serum TTR % TSS (Transthyretin (TTR)) | Serum TTR (Transthyretin (TTR)) | Encapsulation (%) [3, 5] | also measured |
| --- | --- | --- | --- | --- | --- | --- | --- | --- |
| CCCCC/C=C\C/C=C\CCCCCCCC(=O)OCC(COC(=O)CCC(OCCCCCCCC)OCCCCCCCC)COC(=O)NCCN1CCC(O)CC1 (stereo not drawn) [Compound 49, 3-((4,4-bis(octyloxy)butanoyl)oxy)-2-((((2-(4-hydroxypiperidin-1-yl)ethyl)carbamoyl)oxy)methyl)propyl (9Z,12Z)-octadeca-9,12-dienoate] | 8.4 | – | – | – | – | – | – | – |
| CCCCC/C=C\C/C=C\CCCCCCCC(=O)OCC(COC(=O)CCC(OCCCCCCCC)OCCCCCCCC)COC(=O)NCCN(C)CC (stereo not drawn) [Compound 35, 3-((4,4-bis(octyloxy)butanoyl)oxy)-2-((((2-(ethyl(methyl)amino)ethyl)carbamoyl)oxy)methyl)propyl (9Z,12Z)-octadeca-9,12-dienoate] | 7.39 | – | – | – | – | – | – | – |
| CCCCC/C=C\C/C=C\CCCCCCCC(=O)OCC(COC(=O)CCC(OCCCCCCCC)OCCCCCCCC)COC(=O)C1(C)CCN(C)C1 (stereo not drawn) [Compound 30, 3-((4,4-bis(octyloxy)butanoyl)oxy)-2-((((9Z,12Z)-octadeca-9,12-dienoyl)oxy)methyl)propyl 1,3-dimethylpyrrolidine-3-carboxylate] | 6.06 | – | – | – | – | – | – | – |
| CCCCCCCCCCOC(=O)CCCCCCCC(=O)OCC(COC(=O)CCC(OCCCCCCC)OCCCCCCC)COC(=O)OCCCN(CC)CC (stereo not drawn) [Compound 78, 1-(3-((4,4-bis(heptyloxy)butanoyl)oxy)-2-((((3-(diethylamino)propoxy)carbonyl)oxy)methyl)propyl) 9-decyl nonanedioate] | 6.11 | – | – | – | – | – | – | – |
| CCCCC/C=C\C/C=C\CCCCCCCC(=O)OCC(COC(=O)CCC(OCCCCCCCC)OCCCCCCCC)COC(=O)OCCCN(C)C (stereo not drawn) [Compound 2, 3-((4,4-bis(octyloxy)butanoyl)oxy)-2-((((3-(dimethylamino)propoxy)carbonyl)oxy)methyl)propyl (9Z,12Z)-octadeca-9,12-dienoate] | – | 59.17 nm | 0.046 | 75.64 nm | 90% | 1114 µg/mL | 96% | – |
| CCCCC/C=C\C/C=C\CCCCCCCC(=O)OCC(COC(=O)CCC(OCCCCCCCC)OCCCCCCCC)COC(=O)N(C)CCN(CC)CC (stereo not drawn) [Compound 33, 3-((4,4-bis(octyloxy)butanoyl)oxy)-2-((((2-(diethylamino)ethyl)(methyl)carbamoyl)oxy)methyl)propyl (9Z,12Z)-octadeca-9,12-dienoate] | 6.03 | – | – | – | – | – | – | – |
| CCCCC/C=C\C/C=C\CCCCCCCC(=O)OCC(COC(=O)CCC(OCCCCCCCC)OCCCCCCCC)COC(=O)NCCCN1CCC(O)CC1 (stereo not drawn) [Compound 46, 3-((4,4-bis(octyloxy)butanoyl)oxy)-2-((((3-(4-hydroxypiperidin-1-yl)propyl)carbamoyl)oxy)methyl)propyl (9Z,12Z)-octadeca-9,12-dienoate] | 8.9 | – | – | – | – | – | – | – |
| CCCCC/C=C\C/C=C\CCCCCCCC(=O)OCC(COC(=O)CCC(OCCCCCCCC)OCCCCCCCC)COC(=O)NCCCN(CC)CC (stereo not drawn) [Compound 7, 3-((4,4-bis(octyloxy)butanoyl)oxy)-2-((((3-(diethylamino)propyl)carbamoyl)oxy)methyl)propyl (9Z,12Z)-octadeca-9,12-dienoate] | – | – | – | – | 104% | 940 µg/mL | – | Number mean (nm) [2, 6]: 43.91 nm; PDI [2, 6]: 0.126; Z-avg (nm) [2, 6]: 67.61 nm; Encapsulation (%) [3, 7]: 99% |
| CCCCC/C=C\C/C=C\CCCCCCCC(=O)OCC(COC(=O)CCC(OCCCCCCCC)OCCCCCCCC)COC(=O)OCC1CCCN(CC)C1 (stereo not drawn) [Compound 5, 3-((4,4-bis(octyloxy)butanoyl)oxy)-2-(((((1-ethylpiperidin-3-yl)methoxy)carbonyl)oxy)methyl)propyl (9Z,12Z)-octadeca-9,12-dienoate] | – | 50.89 nm | 0.059 | 66.28 nm | 60% | 737 µg/mL | 98% | – |
| CCCCC/C=C\C/C=C\CCCCCCCC(=O)OCC(COC(=O)CCC(OCCCCCCCC)OCCCCCCCC)COC(=O)OCCCN1CCCCCC1 (stereo not drawn) [Compound 23, 3-(((3-(azepan-1-yl)propoxy)carbonyl)oxy)-2-(((4,4-bis(octyloxy)butanoyl)oxy)methyl)propyl (9Z,12Z)-octadeca-9,12-dienoate] | – | – | – | – | 83% | 716 µg/mL | – | Number mean (nm) [2, 6]: 56.62 nm; PDI [2, 6]: 0.068; Z-avg (nm) [2, 6]: 74.78 nm; Encapsulation (%) [3, 7]: 95% |
| CCCCC/C=C\C/C=C\CCCCCCCC(=O)OCC(COC(=O)CCC(OCCCCCCCC)OCCCCCCCC)COC(=O)OCCCN(C)CCN(C)C (stereo not drawn) [Compound 4, 13-(((4,4-bis(octyloxy)butanoyl)oxy)methyl)-2,5-dimethyl-10-oxo-9,11-dioxa-2,5-diazatetradecan-14-yl (9Z,12Z)-octadeca-9,12-dienoate] | – | 44.92 nm | 0.129 | 72.11 nm | 109% | 1347 µg/mL | 100% | – |
| CCCCC/C=C\C/C=C\CCCCCCCC(=O)OCC(COC(=O)CCC(OCCCCCCCC)OCCCCCCCC)COC(=O)OCCCN(C(C)C)C(C)C (stereo not drawn) [Compound 21, 3-((4,4-bis(octyloxy)butanoyl)oxy)-2-((((3-(diisopropylamino)propoxy)carbonyl)oxy)methyl)propyl (9Z,12Z)-octadeca-9,12-dienoate] | – | – | – | – | 87% | 897 µg/mL | – | Number mean (nm) [2, 6]: 59.75 nm; PDI [2, 6]: 0.039; Z-avg (nm) [2, 6]: 75.41 nm; Encapsulation (%) [3, 7]: 94% |
| CCCCC/C=C\C/C=C\CCCCCCCC(=O)OCC(COC(=O)CCC(OCCCCCCCC)OCCCCCCCC)COC(=O)NCCCN(C)C (stereo not drawn) [Compound 6, 3-((4,4-bis(octyloxy)butanoyl)oxy)-2-((((3-(dimethylamino)propyl)carbamoyl)oxy)methyl)propyl (9Z,12Z)-octadeca-9,12-dienoate] | – | 41.82 nm | 0.066 | 56.86 nm | 90% | 1107 µg/mL | 100% | – |
